Reference: patent US4200628A, “Novel aminoglycoside derivatives” (Shionogi & Co., Ltd., priority 1977, dated 1980)
Values after ≈ are worked out from the molar mass of the structure shown.

Tests used:
Assay in all cases: MIC, antimicrobial activity
Type in all cases: cell-based
[1] = test system: Pseudomonas aeruginosa TB-121; details: for Minimum Inhibitory Concentration (MIC): Pseudomonas aeruginosa TB-121, tobramycin resistant strain; for MIC: Pseudomonas aeruginosa, TB121, Pseudomonas aeruginosa TB-121, tobramycin resistant strain, read-out: Minimum Inhibitory Concentration (MIC)
Proteus vulgaris TB-615 = details: for Minimum Inhibitory Concentration (MIC): Proteus vulgaris TB-615, tobramycin resistant strain; for MIC: Proteus vulgaris, TB615, Proteus vulgaris TB-615, tobramycin resistant strain, read-out: Minimum Inhibitory Concentration (MIC)
[2] = test system: Staphylococcus epidermidis TB-775; details: for MIC: Staphylococcus epidermidis, TB775, Staphylococcus epidermidis TB-775, tobramycin resistant strain, read-out: Minimum Inhibitory Concentration (MIC); for Minimum Inhibitory Concentration (MIC): Staphylococcus epidermidis TB-775, tobramycin resistant strain
[3] = test system: Pseudomonas aeriginosa TB-151; details: for Minimum Inhibitory Concentration (MIC): Pseudomonas aeriginosa TB-151, tobramycin resistant strain; for MIC: Pseudomonas, TB151, read-out: Minimum Inhibitory Concentration (MIC), Pseudomonas aeriginosa TB-151, tobramycin resistant strain

SMILES | Minimum Inhibitory Concentration (MIC) [1] [µg/mL] | Minimum Inhibitory Concentration (MIC) (Proteus vulgaris TB-615) [µg/mL] | MIC [2] [µg/mL] | Minimum Inhibitory Concentration (MIC) [3] [µg/mL] | Minimum Inhibitory Concentration (MIC) [2] [µg/mL] | MIC [1] [µg/mL] | MIC (Proteus vulgaris TB-615) [µg/mL] | MIC [3] [µg/mL]
NC[C@H]1O[C@H](O[C@H]2[C@H](O)[C@@H](O[C@H]3O[C@H](CO)[C@@H](O)[C@H](N)[C@H]3O)[C@H](NC(=O)C(O)C3CNCCN3)C[C@@H]2N)[C@H](N)C[C@@H]1O (single isomer, unassigned) [(8), 1-N-[2-hydroxy-2-(piperazin-2-yl)acetyl]tobramycin] | 6.2 | 12.5 | 25 (≈ 41 µM) | 6.2 | – | – | – | –
NC[C@H]1O[C@H](O[C@H]2[C@H](O)[C@@H](O[C@H]3O[C@H](CO)[C@@H](O)[C@H](N)[C@H]3O)[C@H](NC(=O)C(O)C3CNCCN3)C[C@@H]2N)[C@H](N)C[C@@H]1O (single isomer, unassigned) [(9), 1-N-[2-hydroxy-2-(piperazin-2-yl)acetyl]tobramycin] | 12.5 | 50.0 | – | 25.0 | 50.0 | – | – | –
NC[C@H]1O[C@H](O[C@H]2[C@H](O)[C@@H](O[C@H]3O[C@H](CO)[C@@H](O)[C@H](N)[C@H]3O)[C@H](NC(=O)C(O)C3CCNC3)C[C@@H]2N)[C@H](N)C[C@@H]1O (some centres unmarked) [(1), 1-N-[2-hydroxy-2-(pyrrolidin-3-yl)acetyl]tobramycin] | – | – | 6.2 (≈ 10.4 µM) | – | – | 6.2 (≈ 10.4 µM) | 12.5 (≈ 21 µM) | 6.2 (≈ 10.4 µM)
NC[C@H]1O[C@H](O[C@H]2[C@H](O)[C@@H](O[C@H]3O[C@H](CO)[C@@H](O)[C@H](N)[C@H]3O)[C@H](NC(=O)C(O)C3CCN3)C[C@@H]2N)[C@H](N)C[C@@H]1O (some centres unmarked) [(2), 1-N-[2-hydroxy-2-(azetidin-2-yl)acetyl]tobramycin] | – | – | 100 (≈ 172 µM) | – | – | 12.5 (≈ 21.5 µM) | > 100 | 12.5 (≈ 21.5 µM)
NC[C@H]1O[C@H](O[C@H]2[C@H](O)[C@@H](O[C@H]3O[C@H](CO)[C@@H](O)[C@H](N)[C@H]3O)[C@H](NC(=O)C(O)C3CNC3)C[C@@H]2N)[C@H](N)C[C@@H]1O (some centres unmarked) [(3), 1-N-[2-hydroxy-2-(azetidin-3-yl)acetyl]tobramycin] | – | – | 6.2 (≈ 10.7 µM) | – | – | 3.1 (≈ 5.34 µM) | 12.5 (≈ 21.5 µM) | 3.1 (≈ 5.34 µM)
NC[C@H]1O[C@H](O[C@H]2[C@H](O)[C@@H](O[C@H]3O[C@H](CO)[C@@H](O)[C@H](N)[C@H]3O)[C@H](NC(=O)C(O)C3CCCNC3)C[C@@H]2N)[C@H](N)C[C@@H]1O (some centres unmarked) [(4), 1-N-[2-hydroxy-2-(piperidin-3-yl)acetyl]tobramycin] | – | – | 25 (≈ 41.1 µM) | – | – | 25 (≈ 41.1 µM) | 25 (≈ 41.1 µM) | 25 (≈ 41.1 µM)
NC[C@H]1O[C@H](O[C@H]2[C@H](O)[C@@H](O[C@H]3O[C@H](CO)[C@@H](O)[C@H](N)[C@H]3O)[C@H](NC(=O)C(O)C3CCCN3)C[C@@H]2N)[C@H](N)C[C@@H]1O (some centres unmarked) [(5), 1-N-[2-hydroxy-2-(pyrrolidin-2-yl)acetyl]tobramycin] | 25.0 | 100.0 | 100 (≈ 168 µM) | 100.0 | – | – | – | –
NC[C@H]1O[C@H](O[C@H]2[C@H](O)[C@@H](O[C@H]3O[C@H](CO)[C@@H](O)[C@H](N)[C@H]3O)[C@H](NC(=O)C(O)C3CCCN3)C[C@@H]2N)[C@H](N)C[C@@H]1O (some centres unmarked) [(6), 1-N-[2-hydroxy-2-(pyrrolidin-2-yl)acetyl]tobramycin] | 6.2 | 25.0 | – | 12.5 | 50.0 | – | – | –
NC[C@H]1O[C@H](O[C@H]2[C@H](O)[C@@H](O[C@H]3O[C@H](CO)[C@@H](O)[C@H](N)[C@H]3O)[C@H](NC(=O)C(O)C3CCCN3)C[C@@H]2N)[C@H](N)C[C@@H]1O (some centres unmarked) [(7), 1-N-[2-hydroxy-2-(pyrrolidin-2-yl)acetyl]tobramycin] | 100.0 | > 100.0 | – | 50.0 | > 100.0 | – | – | –
NC[C@H]1O[C@H](O[C@H]2[C@H](O)[C@@H](O[C@H]3O[C@H](CO)[C@@H](O)[C@H](N)[C@H]3O)[C@H](N)C[C@@H]2N)[C@H](N)C[C@@H]1O [TOB, tobramycin, reference compound] | – | – | – | – | – | – | 25 (≈ 53.5 µM) | 100 (≈ 214 µM)
